From PMC4263960 (Pediatric blood & cancer, 2013)

Columns and labels:
Design in all cases: species or system mice
[1] = test system: BT-41 ependymoma xenograft; assay: PPTP in vivo xenograft testing, BT-41
[2] = test system: GBM2 glioblastoma xenograft; assay: PPTP in vivo xenograft testing, GBM2
[3] = test system: BT-39 glioblastoma xenograft; assay: PPTP in vivo xenograft testing, BT-39
[4] = test system: D645 glioblastoma xenograft; assay: PPTP in vivo xenograft testing, D645
[5] = test system: NB-1771 neuroblastoma xenograft; assay: PPTP in vivo xenograft testing, NB-1771
[6] = test system: OS-33 osteosarcoma xenograft; assay: PPTP in vivo xenograft testing, OS-33
[7] = test system: OS-31 osteosarcoma xenograft; assay: PPTP in vivo xenograft testing, OS-31
[8] = test system: ALL-7 ALL B-precursor xenograft; assay: PPTP in vivo xenograft testing, ALL-7
[9] = test system: ALL-17 ALL B-precursor xenograft; assay: PPTP in vivo xenograft testing, ALL-17
[10] = test system: ALL-19 ALL B-precursor xenograft; assay: PPTP in vivo xenograft testing, ALL-19
[11] = test system: ALL-31 tertiary T-cell ALL xenograft; assay: PPTP in vivo xenograft testing, ALL-31
[12] = 1 mg/kg IP Q4Dx3 repeated at Day 21
[13] = 1.5 mg/kg IP Q4Dx3 repeated at Day 21

## C=C1C[C@@H]2CC[C@@]34C[C@H]5O[C@H]6[C@@H](O3)[C@H]3O[C@H](CC[C@@H]3O[C@H]6[C@H]5O4)CC(=O)C[C@@H]3[C@@H](OC)[C@@H](C[C@H](O)CN)O[C@H]3C[C@H]3O[C@@H](CC[C@@H]1O2)C[C@@H](C)C3=C [Eribulin]
[1]; 1 mg/kg IP
  Response activity: Int (intermediate activity by a score of ≥2 but <6)
  T/C volume activity: Int (Intermediate activity = T/C ≤0.45 but >0.15)
[1]; [12]
  Median final RTV (CD45%): 1.3
[1]; 1 mg/kg IP, Day 21 or earlier
  Tumor volume T/C: 0.42
[2]; 1 mg/kg IP
  EFS activity: High (High activity requires: (a) an EFS T/C >2; (b) a significant difference in EFS distributions, and (c) a net reduction in median tumor volume for animals in the treated group at the end of treatment as compared to at treatment initiation)
  Response activity: High (A high level of activity is indicated by a score of 6 or more)
  T/C volume activity: Low (Low activity = T/C >0.45)
[2]; [12]
  EFS T/C: >3.5
  Median final RTV (CD45%): 0.6
[2]; 1 mg/kg IP, Day 21 or earlier
  Tumor volume T/C: 1.00
[3]; 1 mg/kg IP
  EFS activity: High (High activity requires: (a) an EFS T/C >2; (b) a significant difference in EFS distributions, and (c) a net reduction in median tumor volume for animals in the treated group at the end of treatment as compared to at treatment initiation)
  Response activity: Int (intermediate activity by a score of ≥2 but <6)
  T/C volume activity: Low (Low activity = T/C >0.45)
[3]; [12]
  EFS T/C: >3.6
  Median final RTV (CD45%): 0.5
[3]; 1 mg/kg IP, Day 21 or earlier
  Tumor volume T/C: 1.00
[4]; 1 mg/kg IP
  EFS activity: Int (Intermediate activity = criteria (a) and (b) above, but not having a net reduction in median tumor volume for treated animals at the end of the study)
  Response activity: High (A high level of activity is indicated by a score of 6 or more)
  T/C volume activity: High (High activity = T/C ≤0.15)
[4]; [12]
  EFS T/C: >7.1
  Median final RTV (CD45%): 3.8
[4]; 1 mg/kg IP, Day 21 or earlier
  Tumor volume T/C: 0.07
[5]; 1 mg/kg IP
  EFS activity: Low (Low activity = EFS T/C <2)
  Response activity: Int (intermediate activity by a score of ≥2 but <6)
  T/C volume activity: Low (Low activity = T/C >0.45)
[5]; [12]
  EFS T/C: 2.0
  Median final RTV (CD45%): >4
  Time to event: 14.8
[5]; 1 mg/kg IP, Day 21 or earlier
  Tumor volume T/C: 0.56
[6]; 1 mg/kg IP
  EFS activity: High (High activity requires: (a) an EFS T/C >2; (b) a significant difference in EFS distributions, and (c) a net reduction in median tumor volume for animals in the treated group at the end of treatment as compared to at treatment initiation)
  Response activity: High (A high level of activity is indicated by a score of 6 or more)
  T/C volume activity: Int (Intermediate activity = T/C ≤0.45 but >0.15)
[6]; [12]
  EFS T/C: >2.7
  Median final RTV (CD45%): 0.2
[6]; 1 mg/kg IP, Day 21 or earlier
  Tumor volume T/C: 0.24
[7]; 1 mg/kg IP
  EFS activity: Int (Intermediate activity = criteria (a) and (b) above, but not having a net reduction in median tumor volume for treated animals at the end of the study)
  Response activity: Int (intermediate activity by a score of ≥2 but <6)
  T/C volume activity: Int (Intermediate activity = T/C ≤0.45 but >0.15)
[7]; [12]
  EFS T/C: >2.6
  Median final RTV (CD45%): 1.8
[7]; 1 mg/kg IP, Day 21 or earlier
  Tumor volume T/C: 0.27
[8]; 1.5 mg/kg IP
  EFS activity: Int (Intermediate activity = criteria (a) and (b) above, but not having a net reduction in median tumor volume for treated animals at the end of the study)
  Response activity: High (A high level of activity is indicated by a score of 6 or more)
[8]; [13]
  EFS T/C: >4.4
[8]; CD45%, 1.5 mg/kg IP
  Median final RTV (CD45%): 3.0%
[9]; 1.5 mg/kg IP
  EFS activity: High (High activity requires: (a) an EFS T/C >2; (b) a significant difference in EFS distributions, and (c) a net reduction in median tumor volume for animals in the treated group at the end of treatment as compared to at treatment initiation)
  Response activity: High (A high level of activity is indicated by a score of 6 or more)
[9]; [13]
  EFS T/C: >5.3
[9]; CD45%, 1.5 mg/kg IP
  Median final RTV (CD45%): 0.0%
[10]; 1.5 mg/kg IP
  EFS activity: High (High activity requires: (a) an EFS T/C >2; (b) a significant difference in EFS distributions, and (c) a net reduction in median tumor volume for animals in the treated group at the end of treatment as compared to at treatment initiation)
  Response activity: High (A high level of activity is indicated by a score of 6 or more)
[10]; [13]
  EFS T/C: >8.4
[10]; CD45%, 1.5 mg/kg IP
  Median final RTV (CD45%): 0.0%
[11]; 1.5 mg/kg IP
  EFS activity: Int (Intermediate activity = criteria (a) and (b) above, but not having a net reduction in median tumor volume for treated animals at the end of the study)
  Response activity: High (A high level of activity is indicated by a score of 6 or more)
[11]; [13]
  EFS T/C: >3.7
[11]; CD45%, 1.5 mg/kg IP
  Median final RTV (CD45%): 12.9%
